From patent publication US5185358A, “3-heteroatom containing urea and thiourea ACAT inhibitors” (Warner-Lambert Co., priority 1991, dated 1993)
pIC50: −log10 of the molar value.

Key:
[1] = In vivo screen designated APCC: blood cholesterol in rats on chow supplemented with peanut oil, cholesterol and cholic acid; conditions: cholesterol in blood, male Sprague-Dawley rats, oral, 30 milligrams per kilogram, single dose 4 PM, blood samples 8 AM next day, vs vehicle control (CMC/Tween); for change in vivo at 30 mg/kg: Rattus norvegicus, 16 h, read-out: % Change (mg/dl)
Text: In one in vivo screen designated APCC, male Sprague-Dawley rats (200 to 225 g) were randomly divided into treatment groups and dosed orally at 4 PM with either vehicle (CMC/Tween) or suspensions of test compounds in vehicle. The control group received vehicle alone. Immediately after dosing, all animals received ad libitum a chow diet supplemented with peanut oil (5.5%), cholesterol (1.5%) and cholic acid (0.5%). The next day the animals were sacrificed at 8 AM to obtain blood samples for cholesterol analysis using standard procedures. Statistical differences between mean cholesterol values for the same vehicle were determined using analysis of variance followed by Fisher's least significant test. The compounds were administered at 30 milligrams per kilogram of body weight.

[2] = target: T1, acyl-CoA:cholesterol acyltransferase (ACAT) (Oryctolagus cuniculus, UniProt G1SFD9); assay: In vitro ACAT inhibition: radiolabeled cholesterol oleate formed from radiolabeled oleic acid in rabbit intestinal microsomes; format: biochemical; conditions: concentration required to inhibit 50% activity of the enzyme
T1 sequence (G1SFD9 1-524): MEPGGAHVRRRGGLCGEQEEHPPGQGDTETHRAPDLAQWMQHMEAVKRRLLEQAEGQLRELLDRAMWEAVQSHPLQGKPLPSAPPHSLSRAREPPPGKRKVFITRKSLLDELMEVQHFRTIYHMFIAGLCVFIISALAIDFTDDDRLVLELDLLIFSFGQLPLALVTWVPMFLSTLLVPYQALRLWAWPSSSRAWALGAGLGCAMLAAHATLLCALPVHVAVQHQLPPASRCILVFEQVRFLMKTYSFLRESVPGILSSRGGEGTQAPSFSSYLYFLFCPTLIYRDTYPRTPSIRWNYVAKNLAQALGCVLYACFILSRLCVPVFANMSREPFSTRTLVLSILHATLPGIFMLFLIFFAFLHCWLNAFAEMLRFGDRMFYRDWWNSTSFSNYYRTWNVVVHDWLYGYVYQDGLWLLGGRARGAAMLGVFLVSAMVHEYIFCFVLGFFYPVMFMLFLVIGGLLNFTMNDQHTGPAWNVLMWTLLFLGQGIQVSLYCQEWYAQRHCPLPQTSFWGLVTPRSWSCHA
Method: The ability of representative compounds of the present invention to inhibit ACAT was measured using an in vitro test more fully described by Field, F. J. and Salone, R. G., in Biochemica et Biophysica 712:557-570 (1982). The test assesses the ability of a test compound to inhibit the acylation of cholesterol by oleic acid by measuring the amount of radiolabeled cholesterol oleate formed from radiolabeled oleic acid in a tissue preparation containing rabbit intestinal microsomes.

| pIC50 [2] | Molecule | change in vivo at 30 mg/kg [1] | % Change (mg/dl) [1] |
| --- | --- | --- | --- |
| 6.22 | CCCCCCCCCCCCSc1nnc(NC(=O)Nc2c(C(C)C)cccc2C(C)C)n1C(C)=O [Example 13, 4-acetyl-N-[[[2,6-bis(1-methylethyl)phenyl]amino]carbonyl]-5-(dodecylthio)-4H-1,2,4-triazol-3-amine] | -41% | – |
| < 5.30 | CSc1nnc(NC(=O)Nc2c(C(C)C)cccc2C(C)C)[nH]1 [Example 27] | – | – |
| 6.40 | CCCCCCCc1nnc(NC(=O)Nc2c(C(C)C)cccc2C(C)C)s1 [Example 20, N-[2,6-bis(1-methylethyl)phenyl]-N'-(5-heptyl-1,3,4-thiadiazol-2-yl)urea] | -25% | – |
| < 5.30 | CCCCCCCCCCCCCCc1nc(NC(=O)Nc2c(C(C)C)cccc2C(C)C)n[nH]1 [Example 6] | -1% | – |
| 6.96 | CCCCCCCCCCCn1cnc(NC(=O)Nc2c(C(C)C)cccc2C(C)C)n1 [Example 8, N-[2,6-bis(1-methylethyl)phenyl]-N-(1-undecyl-1,2,4-triazol-3-yl)urea] | -39% | – |
| 8.15 | CCCCCCCCCCCCCc1nc(NC(=O)Nc2c(C(C)C)cccc2C(C)C)no1 [Example 26, N-[2,6-bis(1-methylethyl)phenyl]-N'-[5-tridecyl-1,2,4-oxadiazol-3-yl]urea] | – | – |
| 5.82 | CCCCCCCCCCCCn1cnc(NC(=O)Nc2c(C(C)C)cccc2C(C)C)n1 [Example 11, N-[2,6-bis(1-methylethyl)phenyl]-N'-(1-dodecyl-1H-1,2,4-triazol-3-yl)urea] | -30% | – |
| 7.47 | CCCCCCCCCCCCc1nnc(NC(=O)Nc2c(C(C)C)cccc2C(C)C)s1 [Example 23, N-[2,6-bis(1-methylethyl)phenyl]-N'-(5-dodecyl-1,3,4-thiadiazol-2-yl)urea] | -32% | – |
| 6.85 | CCCCCCCCCCCn1ncnc1NC(=O)Nc1c(C(C)C)cccc1C(C)C [Example 7, N-[2,6-bis(1-methylethyl)phenyl]-N'-(2-undecyl-2H-1,2,4-triazol-3-yl)urea] | -38% | – |
| < 5.30 | CC(C)c1cccc(C(C)C)c1NC(=O)Nc1nc(-c2ccccc2)ns1 [Example 24, N-[2,6-Bis(1-methylethyl)phenyl]-N'-(3-phenyl-1,2,4-thiadiazol-5-yl)urea] | – | – |
| < 5.30 | Cc1nnc(NC(=O)Nc2c(C(C)C)cccc2C(C)C)s1 [Example 19, N-[2,6-bis(1-methylethyl)phenyl]-N'-(5-methyl-1,3,4-thiadiazol-2-yl)urea] | – | – |
| 7.41 | CCCCCCCCCCCc1nnc(NC(=O)Nc2c(C(C)C)cccc2C(C)C)s1 [Example 18, N-[2,6-bis(1-methylethyl)phenyl]-N'-(5-undecyl-1,3,4-thiadiazol-2-yl)urea] | -44% | – |
| 6.17 | CCCCCCCCCCCn1cnnc1NC(=O)Nc1c(C(C)C)cccc1C(C)C [Example 9, N-[2,6-bis(1-methylethyl)phenyl]-N'(4-undecyl-1,2,4-triazol-3-yl)urea] | -21% | – |

The remaining lines, values behind:

| Molecule | pIC50 [2] | change in vivo at 30 mg/kg [1] | % Change (mg/dl) [1] |
| --- | --- | --- | --- |
| CCCCCCCCCCCCn1cnnc1NC(=O)Nc1c(C(C)C)cccc1C(C)C [Example 12, N-[2,6-bis(1-methylethyl)phenyl]-N'-(4-dodecyl-4H-1,2,4-triazol-3-yl)urea] | – | -28% | – |
| CCCCCCCCCCCCC[S+]([O-])c1nc(NC(=O)Nc2c(C(C)C)cccc2C(C)C)n[nH]1 (stereo not shown) [Example 16, N-[2,6-Bis(1-methylethyl)phenyl]-N'-[5-(tridecylsulfinyl)-1H-1,2,4-triazol-3-yl]urea] | – | -6% | – |
| CCCCCCCCCCCc1nc(NC(=O)Nc2c(C(C)C)cccc2C(C)C)n[nH]1 [Example 2, N-[2,6-bis(1-methylethyl)phenyl]-N'-(5-undecyl-1H-1,2,4-triazol-3-yl)urea] | < 5.30 | -31% | – |
| CCCCCCCCCCCCCc1nnc(NC(=O)Nc2c(C(C)C)cccc2C(C)C)o1 [Example 25, N-[2,6-bis(1-methylethyl)phenyl]-N'-(5-tridecyl-1,3,4-oxadiazol-2-yl)urea] | – | -62% | – |
| CCCCCCCCCCCCCS(=O)(=O)c1nnc(NC(=O)Nc2c(C(C)C)cccc2C(C)C)[nH]1 [Example 17] | – | -11% | – |
| CCCCCCCCCCCCCSc1nnc(NC(=O)Nc2c(C(C)C)cccc2C(C)C)[nH]1 [Example 15, N-[[[2,6-Bis(1-methylethyl)phenyl]amino]carbonyl]-5-(tridecylthio)-4H-1,2,4-triazol-3-amine] | – | 12% | – |
| N-[2,6-bis(1-methylethyl)phenyl]-N'-(2-dodecyl-1H-1,2,4-triazol-5-yl)urea [Example 10] | 6.60 | – | -36% |
| CCCCCCCCCCCCCc1nnc(NC(=O)Nc2c(C(C)C)cccc2C(C)C)s1 [Example 22, N-[2,6-bis(1-methylethyl)phenyl]-N'-(5-tridecyl-1,3,4-thiadiazol-2-yl)urea] | – | -8% | – |
| CCCCCCCCCc1nnc(NC(=O)Nc2c(C(C)C)cccc2C(C)C)s1 [Example 21, N-[2,6-bis(1-methylethyl)phenyl]-N'-(5-nonyl-1,3,4-thiadiazol-2-yl)urea] | – | -45% | – |
| CCCCCCCCCCCCCSc1nnc(NC(=O)Nc2c(C(C)C)cccc2C(C)C)n1C(C)=O [Example 14, 4-Acetyl-N-[[[2,6-bis(1-methylethyl)phenyl]amino]carbonyl]-5-(tridecylthio)-4H-1,2,4-triazol-3-amine] | – | -21% | – |
| CCCCCCCCCCCc1nc(NC(=O)Nc2c(C(C)C)cccc2C(C)C)n(C(C)=O)n1 [Example 1, N-[2,6-bis(1-methylethyl)phenyl]-N'-(2-acetyl-5-undecyl-2H-1,2,4-triazol-3-yl)urea] | < 5.30 | -38% | – |
| CCCCCCCCCCCCc1nc(NC(=O)Nc2c(C(C)C)cccc2C(C)C)n[nH]1 [Example 4, N-[2,6-bis(1-methylethyl)phenyl]-N'(5-dodecyl-1H-1,2,4-triazol-3-yl)urea] | – | 12% | – |
